# Reference: patent US9511136B2, “Immunogenic compounds comprising HIV GP41 peptide coupled to CRM197 carrier protein” ([…], priority 2012, dated 2016)
# “And” between values parts separate entries of the source, which are not always exact repeats. Identical values can stand only once.
# System: NKp44L at the surface of activated human CD4+ T cells
# Assay: Inhibition by antiserums of 3S16Nter-induced NKp44L expression at the surface of activated human CD4+ T cells (cytofluorometry)
# Format: cell-based
# Text: The aim of Example 5 was to test the ability of the antiserums of a rat vaccinated with the adjuvanted 3S drug substance to inhibit the expression of NKp44L at the surface of activated human CD4+ T cells induced by the 3S peptide, namely the 3S16Nter peptide.
# CD4+ T cells were sorted from human PBMC and activated for 3 days with PHA (Thermo Fisher Scientific, Waltham, USA) then expanded for three days with recombinant IL-2 (Novartis, Horsham, United Kingdom). The cells were put in presence of 3S16Nter peptides (Covalab, Villeurbanne, France) in order to induce the expression of NKp44L at their surface.
# The expression of NKp44L at the surface of the cells was measured using the intensity of a specific fluorescent staining measured by cytofluorometry.
# The inhibition of NKp44L expression by the antiserums of vaccinated rat was studied.
# The antisera were tested at different dilutions in triplicate.
# Human CD4+ T cells were obtained by magnetic separation from a leuko-platelet residue pouch ordered from the EFS (“Etablissement Francais du Sang”).
# The human CD4+ T cells were sorted from the pouch according to the following protocol: • 1. The pouch is distributed in four Falcon tubes of 50 mL: 4×15 mL • 2. Complete to 50 mL with RPMI1640+glutamax medium (ref 72400-054, GIBCO, Life Technologies, Carlsbad, USA) • 3. […]
substance,measurement,setting,value
H-CPWNASWSNKSLDDIW-OH [3S16Nter],PE X-mean fluorescence,"no serum, with 3S16Nter peptides (5 μg/mL), single wells",59.6 and 64.7
same,NKp44L expression on activated CD4+ T cells (mean level),"without serum, in the presence of 3S16Nter peptides",62
